Assays:
MDA-MB-231 tumor = experiment: Therapeutic efficacy test in MDA-MB-231 orthotopic tumor model; assay type: in vivo, athymic nude mice; conditions: for therapeutic outcome in small tumors: tumors about 30 mm^3, i.v. weekly; for therapeutic outcome in small tumors / antitumor effect in large tumors: TX equivalent 30 mg/Kg; for antitumor effect in large tumors: tumors about 120 mm^3, i.v., 4 weekly injections
Description: The MDA-MB-231 tumor model was used for testing the in-vivo therapeutic efficacy of these polymer-drug conjugates. MDA-MB-231 tumors were developed in the mammary fat pad of athymic nude mice as discussed above. When the average sizes of the tumor reached 100-120 or ˜30 mm^3, mice were randomly sorted into 4 groups (6 mice each group). A paclitaxel equivalent of 30 mg/kg of free drug and polymer drug conjugates were administered i.v. and the injections were performed weekly. Tumor sizes were measured in two dimensions with calipers and volume was calculated using the following formula: Tumor volume=(length×width^2)/2. The end-point size of this tumor model was set at 1,500 mm^3, 20% weight loss or severe ulceration (more than 20% of tumor areas).
Following the in-vivo blood circulation and tumor targeting tests, the anti-tumor activity of these nanoparticles was evaluated in comparison with free TX using the MDA-MB-231 orthotopic tumor model with two serials trials of tumor sizes of about 120 and 30 mm^3.

tumor cell cultures = conditions: cited from earlier work
[1] = room temperature (25 degrees C.); cited from earlier work

Compound: CC(=O)O[C@H]1C(=O)[C@@]2(C)[C@H]([C@H](OC(=O)c3ccccc3)[C@]3(O)C[C@H](OC(=O)[C@H](O)[C@@H](NC(=O)c4ccccc4)c4ccccc4)C(C)=C1C3(C)C)[C@]1(OC(C)=O)CO[C@@H]1C[C@@H]2O [TX, paclitaxel]
- histological analysis of tumor sections: Ki67 expression level (MDA-MB-231 tumor; large tumors, TX equivalent 30 mg/Kg weekly): little difference compared to the control
- therapeutic outcome in small tumors (MDA-MB-231 tumor): delayed response to the treatment
- antitumor effect in large tumors (MDA-MB-231 tumor): little effect on tumor inhibition

Compound: PG-2′-O— succinyl-paclitaxel [GT]
- therapeutic outcome in small tumors (MDA-MB-231 tumor): delayed response to the treatment
- antitumor effect in large tumors (MDA-MB-231 tumor): significant antitumor effects

Compound: esperamicin
- IC50 for inhibition of growth of tumor cell cultures (tumor cell cultures): low picomolar range

Compound: COc1cccc2c1C(=O)c1c(O)c3c(c(O)c1C2=O)C[C@@](O)(C(=O)CO)C[C@@H]3O[C@H]1C[C@H](N)[C@H](O)[C@H](C)O1 [doxorubicin]
- solubility in water [1]: 1 milligram/ml

Compound: dynemicin
- IC50 for inhibition of growth of tumor cell cultures (tumor cell cultures): low picomolar range

Compound: CC(C)CCC[C@@H](C)[C@H]1CC[C@H]2[C@@H]3CC=C4C[C@@H](O)CC[C@]4(C)[C@H]3CC[C@]12C [cholesterol]
- solubility in water [1]: 10 nanograms/ml

Compound: calicheamicin
- IC50 for inhibition of growth of tumor cell cultures (tumor cell cultures): low picomolar range

Source: patent US20110060036A1, “Branched Multifunctional Nanoparticle Conjugates And Their Use” (EMORY UNIVERSITY, priority 2008, published 2011)
